# Measurements as given in US20250120399A1, “METHODS AND COMPOSITIONS FOR ALTERING METABOLITES IN VITIS SPP. AND PREVENTING PESTS AND PATHOGENS” (Impello Biosciences, Inc., priority 2022, published 2025).
# Values joined by “and” are separate entries in the source; they are usually repeats but may differ in a detail not shown here. Identical values can stand only once.
# Test system: Grapevine (Malbec variety)
# Test: Leaf sap Brix by refractometer, Malbec field trial (Example 1)
# Type: in vivo, Vitis vinifera
# Design: % BRIX, Plant #1 / % BRIX, Plant #2 / % BRIX, Plant #3: reference not given here
# Conditions: for Brix, individual leaf: leaf no. 1-25, one line per leaf
# Method: An eliciting composition and methods of use to alter metabolite production were tested on 6 acres of a Malbec variety planted in 1999 in Napa Valley, California. Plants were spaced 5′×10′ (900 vines per acre) and grouped into randomized blocks of 900 vines per group, with six replicates covering three acres for the treatment group, and six replicates covering three acres for the control group. The treatment group received two applications of 32 oz of MDJ applied at a rate of 100 gallons per acre (2.5 mM), once prior to veraison on Aug. 9, 2021 and again when 5-10% of berries were starting to blush (veraison) using a ground spray rig (backpack sprayer). From within each replicate, three plants were selected at random, and 25 leaves from each plant were randomly selected for analysis. The internal sap of the leaves was tested using a refractometer on the days shown below in Table 4 and FIG. 1. Data from each replicate was averaged (25 leaves from each plant, 3 plants).
# [1] = Malbec, 2.5 mM MDJ, average of all replicate groups sampled
# [2] = Replicate 1 sampled on Aug. 15, 2021, MDJ treated Plant #1
# [3] = Replicate 1 sampled on Aug. 15, 2021, MDJ treated Plant #2
# [4] = Replicate 1 sampled on Aug. 15, 2021, MDJ treated Plant #3
# [5] = Replicate 2 sampled on Sep. 22, 2021, MDJ treated Plant #1
# [6] = Replicate 2 sampled on Sep. 22, 2021, MDJ treated Plant #2
# [7] = Replicate 2 sampled on Sep. 22, 2021, MDJ treated Plant #3
# [8] = Replicate 3 sampled on Sep. 30, 2021, MDJ treated Plant #1
# [9] = Replicate 3 sampled on Sep. 30, 2021, MDJ treated Plant #2
# [10] = Replicate 3 sampled on Sep. 30, 2021, MDJ treated Plant #3
smiles,measurement,setting,value
"CCCCCC1C(=O)CCC1CC(=O)OC (stereo not shown) [MDJ, methyl dihydrojasmonate]","Brix, individual leaf","Malbec, 2.5 mM MDJ, Replicate 1 sampled on Aug. 15, 2021, MDJ treated Plant #1",21.0 and 20.0 (2×) and 19.0 (2×) and 19.8 (3×) and 19.5 (3×) and 18.7 (2×) and 19.4 (2×) and 20.5 (2×) and 18.9 (5×) and 18.4 and 19.9 (2×)
same,"Brix, individual leaf","Malbec, 2.5 mM MDJ, Replicate 1 sampled on Aug. 15, 2021, MDJ treated Plant #2",18.8 and 22.1 and 19.6 and 18.7 and 18.9 (2×) and 19.7 (2×) and 19.0 (2×) and 21.0 (2×) and 20.1 and 19.2 (2×) and 21.1 and 21.8 and 19.1 (2×) and 18.3 and 18.0 and 18.6 and 22.8 and 19.5 and 19.3
same,"Brix, individual leaf","Malbec, 2.5 mM MDJ, Replicate 1 sampled on Aug. 15, 2021, MDJ treated Plant #3",19.1 and 19.7 (2×) and 19.0 (2×) and 21.0 and 21.8 (2×) and 19.2 (2×) and 20.0 and 19.10 and 19.00 (2×) and 19.30 (2×) and 19.60 and 19.40 (2×) and 18.80 and 18.90 (2×) and 19.6 and 18.3 and 18.9
same,"Brix, individual leaf","Malbec, 2.5 mM MDJ, Replicate 2 sampled on Sep. 22, 2021, MDJ treated Plant #1",23.9 and 26.3 and 23.4 and 26.8 and 24.3 and 23.1 and 25.0 and 22.9
same,"Brix, individual leaf","Malbec, 2.5 mM MDJ, Replicate 2 sampled on Sep. 22, 2021, MDJ treated Plant #2",26.5 and 25.5 and 24.8 and 24.9 and 26.7 and 23.8 and 24.0 and 25.0
same,"Brix, individual leaf","Malbec, 2.5 mM MDJ, Replicate 2 sampled on Sep. 22, 2021, MDJ treated Plant #3",25.00 (2×) and 19.90 (2×) and 22.40 and 23.80 and 19.30 and 24.60 and 24.50
same,"MDJ TREATED averages, BRIX METRIC Juice-SAP",[1],26.1
same,"Percent increase of Brix, MDJ treated vs control",[1],44.5%
same,"Percent increase of Brix, MDJ treated vs control","Malbec, 2.5 mM MDJ, replicate group 2, 22-Sep",59.4%
same,"Percent increase of Brix, MDJ treated vs control","Malbec, 2.5 mM MDJ, replicate group 3, 30-Sep",93.3%
same,"Percent increase of Brix, MDJ treated vs control","Malbec, 2.5 mM MDJ, replicate group 4, 5-Oct",46.3%
same,"Percent increase of Brix, MDJ treated vs control","Malbec, 2.5 mM MDJ, replicate group 5, 10-Oct",25%
same,"Percent increase of Brix, MDJ treated vs control","Malbec, 2.5 mM MDJ, replicate group 6, 30-Oct",62.5%
same,"MDJ TREATED averages, BRIX METRIC Juice-SAP","Malbec, two applications of 32 oz MDJ at 100 gal/acre (2.5 mM), replicate group 1, 15-Aug",19.6
same,"MDJ TREATED averages, BRIX METRIC Juice-SAP","Malbec, two applications of 32 oz MDJ at 100 gal/acre (2.5 mM), replicate group 2, 22-Sep",24.4
same,"MDJ TREATED averages, BRIX METRIC Juice-SAP","Malbec, two applications of 32 oz MDJ at 100 gal/acre (2.5 mM), replicate group 3, 30-Sep",29.0
same,"MDJ TREATED averages, BRIX METRIC Juice-SAP","Malbec, two applications of 32 oz MDJ at 100 gal/acre (2.5 mM), replicate group 4, 5-Oct",30.0
same,"MDJ TREATED averages, BRIX METRIC Juice-SAP","Malbec, two applications of 32 oz MDJ at 100 gal/acre (2.5 mM), replicate group 5, 10-Oct",27.5
same,"MDJ TREATED averages, BRIX METRIC Juice-SAP","Malbec, two applications of 32 oz MDJ at 100 gal/acre (2.5 mM), replicate group 6, 30-Oct",26.0
same,Plant Brix vs control,"Malbec, two applications of MDJ (2.5 mM)",increase in plant Brix
same,% BRIX,[2],77.9%
same,AVG Brix of 25 leaves,[2],19.5
same,% BRIX,[3],78.8%
same,AVG Brix of 25 leaves,[3],19.7
same,% BRIX,[4],77.9%
same,AVG Brix of 25 leaves,[4],19.5
same,% BRIX,[5],99.5%
same,AVG Brix of 25 leaves,[5],24.9
same,% BRIX,[6],101.0%
same,AVG Brix of 25 leaves,[6],25.3
same,% BRIX,[7],91.8%
same,AVG Brix of 25 leaves,[7],23.0
same,% BRIX,[8],111.9%
same,AVG Brix of 25 leaves,[8],28.0
same,% BRIX,[9],117.9%
same,AVG Brix of 25 leaves,[9],29.5
same,% BRIX,[10],117.9%
same,AVG Brix of 25 leaves,[10],29.5
same,"% BRIX, Plant #1","Replicate 4, Oct. 5, 2021, MDJ treated Plant #1",119.5%
same,"% BRIX, Plant #2","Replicate 4, Oct. 5, 2021, MDJ treated Plant #2",119.2%
same,"% BRIX, Plant #3","Replicate 4, Oct. 5, 2021, MDJ treated Plant #3",120.8%
same,"% BRIX, Plant #1","Replicate 5, Oct. 10, 2021, MDJ treated Plant #1",111.4%
same,"% BRIX, Plant #2","Replicate 5, Oct. 10, 2021, MDJ treated Plant #2",111.4%
